Experimental data: patent US4861876A, “Hematoporphyrin derivative and method of preparation and purification” (priority 1986, dated 1989)

Legend:
[1] = test system: L1210 mouse/leukemia cells; experiment: Photodynamic effects on cell viability as a function of irradiation wavelength (soft-agar clonogenic assay); type: cell-based; conditions: for Action spectrum: cell viability after irradiation at 620 nm (mean + SD of control percentage) / Action spectrum: cell viability after irradiation at 630 nm (mean + SD of control percentage) / Action spectrum: cell viability after irradiation at 640 nm (mean + SD of control percentage) / Action spectrum: cell viability after irradiation at 650 nm (mean + SD of control percentage): 24 h incubation, 5 g/ml (so in the source), 2000 J/m^2, five minutes; for optimal phototoxic light wave length: cells loaded for 24 hours
Method: In order to determine the photosensitization capacity of DHE and CHE, respectively, comparison in vitro tests were prepared using L1210 mouse/leukemia cells grown in culture using Fischer's medium plus 10 percent horse serum. Cell suspensions (7 mg/ml wet weight) were incubated for 24 hours in growth medium containing the 5 µg/ml of the respective photosensitizer. The cell suspensions were, then, washed for 30 minutes at 37° C. in fresh medium to remove readily diffusible porphyrine.
Irradiation was carried out for five minutes (fluence =2000 J/m^2) using a 100 w tungsten-halogen lamp with a wave length selected via narrow bandpass interference filters (=10 nm). Photodynamic effects on cell viability, as a function of irradiation wavelength, were measured by a soft-agar clonogenic assay in the manner described in Kessel, "Determinants of Hematoporphyrincatalyzed Photosensitization" 36 Photochemical Photobiology pp. 99-101 (1982) which is incorporated herein by reference. Light filters were purchased from the Oriel Corp. of Stanford, CT, and the light flux was measured with a thermopile obtained from the same source.

Lewis lung tumor = experiment: In vivo accumulation in Lewis lung tumor (extraction, fluorescence); conditions: for fluorescence emission of tumor extracts (in words): excitation 400 nm, FIG. IV; for accumulation of fluorescent components at tumor loci (in words) / Uptake in vivo: 5 mg/kg i.p., 48 hours after injection; for Uptake in vivo: average + SD of three determinations
Method: In vivo biological studies were conducted using DHE, CHE, HPD, hematoporphyrin, mesochlorin and bonellin. The Lewis lung tumor was maintained in female C57BL/6 mice by S.C. implant. Seven days after implantation, a respective compound was administered to test mice by i.p. injection at a dosage level of 5 mg/kg. Forty-eight hours after injection, each tumor was excised, weighed and homogenized in 50 mM 4-(2-hydroxyethyl)-1-piperazineethanesulfonic acid buffer (pH7) containing 10 mM cetyltrimethyl ammonium bromide (1 m./100 mg tissue). The resulting homogenates were shaken with 2.5 volumes of methanol: chloroform (1:1) and the phases separated by centrifugation. Under these conditions, fluorescence is quantitatively extracted into the chloroform-rich phase. These extracts were used for determination of fluorescence emission spectra (excitation wave length, 400 nm). […] For analytical studies, the extracts were evaporated and the residue hydrolyzed in 0.5 M HCl at 37° C. for 18 hours.

L1210 cells = experiment: In vitro uptake by L1210 tumor cells; type: cell-based, mouse; conditions: 24 hours, 10 μg/ml; for Uptake in vitro: average + SD of three determinations
Method: Uptake of DHE or CHE, purified by gel-exclusion chromatography, was measured by extraction of cells after 24 hour incubations in vitro. Cell pellets (20-30 mg) were suspended in 800 μL of phosphate buffer (pH 3.5) and shaken for 3 minutes with 2 ml of a 1:1 mixture of methanol: chloroform. The lower phase was collected by centrifugation and used for measurement of absorbance at 400 nm.
In vitro uptake of DHE, CHE and HPD, hematoporphyrin, mesochlorin and bonellin by tumor cells was studied using L1210 cells incubated for 24 hours with 10 μg/ml concentrations of each respective compound. The cells were then washed for 30 minutes in fresh medium at 37° C. and drug concentrations were determined.

[2] = Storage stability of aqueous solutions of CHE; type: physicochemical
Method: The storage stability of aqueous solutions of CHE (ph 7.5) is determined at -20° C. and at 4° C. respectively.

Compound	Action spectrum: cell viability after irradiation at 620 nm (mean + SD of control percentage) [1]	Action spectrum: cell viability after irradiation at 630 nm (mean + SD of control percentage) [1]	Action spectrum: cell viability after irradiation at 640 nm (mean + SD of control percentage) [1]	Action spectrum: cell viability after irradiation at 650 nm (mean + SD of control percentage) [1]	optimal phototoxic light wave length [1]	lethality relative to DHE ([1]; constant flux of 2000 J/M^2, CHE vs DHE)	fluorescence emission of tumor extracts (in words) (Lewis lung tumor)	in vitro accumulation compared between drugs (in words) (L1210 cells)	storage stability of aqueous solution at 4° C. ([2]; pH 7.5, 4° C.)	storage stability of aqueous solution at -20° C. ([2]; pH 7.5, -20° C.)	accumulation of fluorescent components at tumor loci (in words) (Lewis lung tumor)	Uptake in vivo (Lewis lung tumor)	Uptake in vitro (L1210 cells)
CCC1=C(C)c2cc3[nH]c(cc4nc(cc5[nH]c(cc1n2)c(C)c5CCC(=O)OC(C)C1=C(C)c2cc5[nH]c(cc6nc(cc7[nH]c(cc1n2)c(C)c7CCC(=O)O)C(CCC(=O)O)=C6C)c(C)c5C(C)O)C(CCC(=O)O)C4C)c(C)c3CC (centres unmarked) [CHE, chlorin-hematoporphyrin ester]	96 + 5 control percentage	87 + 5 control percentage	10 + 2 control percentage	65 + 2 control percentage	640 nm	5 fold	greater tumor fluorescence emission at 647 nm than at 627 nm	almost identical	gradual hydrolysis of the ester-linkage	remained stable	–	–	–
Dihematoporphyrin ester [DHE]	68 + 4 control percentage	45 + 2 control percentage	85 + 5 control percentage	96 + 3 control percentage	630 nm	–	fluorescence at 627 nm only	almost identical	–	–	accumulation of fluorescent components at tumor loci	2.1	0.49
CC1=C(CCC(=O)O)c2cc3nc(cc4[nH]c(cc4C)cc4[nH]c(cc1n2)cc4C)C(C)(C)C3CCC(=O)O (centres unmarked) [Bonellin, bonellin]	–	–	–	–	–	–	–	–	–	–	no detectible concentration of fluorescent products at tumor loci	< 0.01	0.06 µg/100 mg cells
